Source: publication PMC7794297

Legend:
[1] = Solubility under DCL conditions; format: physicochemical; conditions: aqueous buffer; basic pH and 2.5% (v/v) DMSO
Description: reaction of compound 3 to (3)2 in the presence of selenocystine and DMSO. The accelerating role of DMSO wa s disca rded by running control experim ents containing up to 20% (v/v) DMSO, which is much larger than the amount of this co-solvent used in our standard conditions (2.5% (v/v) DMSO).
1) All the amino acids shown in Figure 3 have D-stereochemistry. I guess this is an error, please amend that. The same issue states for the structures in Figure 1.
Thank you. It has been corrected.
2) For every mention to % of a reagent, especially in the methods part, it should be clearly stated if this is volume, weight of molar percent, and with respect to what.
Thank you. It has been included.
3) Some of the disulfides formed in the libraries (i.e. (4)2) are expected to be poorly soluble in buffered water. […] When quantifying species in a mixture, solubility problems must be carefully […]
1.The main problem of the MS is that the authors only describe the rate enhancement by comparing if the reactions have reached equilibrium after 24 h or 96 h, as characterised by HPLC. It is shown for different ratios of the catalyst, but it doesn’t provide any quantitative measure of the rate acceleration. […] The authors should provide quantitative characterisation of the rate constants, starting with a simple homodimerisation of thiols, as it is done in ref. 15. […]

glucose oxidase (GOx) = glucose oxidase (GOx) (Aspergillus niger, UniProt P13006); assay: Tryptophan fluorescence emission binding experiments with GOx; set-up: purchased Sigma Aldrich; conditions: for Emmsion average / Normalized Fluorescence: Supplementary Figure 52 b
[2] = Spermidine-templated DCL of building blocks 1-4;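 further: Spermidine-templated dynamic combinatorial library, normalized change of RPA compared between Secox-free and Secox-containing libraries, DCC runs done in triplicate, values given as mean ± SD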

glucose oxidase (GOx), sequence (P13006 17-605): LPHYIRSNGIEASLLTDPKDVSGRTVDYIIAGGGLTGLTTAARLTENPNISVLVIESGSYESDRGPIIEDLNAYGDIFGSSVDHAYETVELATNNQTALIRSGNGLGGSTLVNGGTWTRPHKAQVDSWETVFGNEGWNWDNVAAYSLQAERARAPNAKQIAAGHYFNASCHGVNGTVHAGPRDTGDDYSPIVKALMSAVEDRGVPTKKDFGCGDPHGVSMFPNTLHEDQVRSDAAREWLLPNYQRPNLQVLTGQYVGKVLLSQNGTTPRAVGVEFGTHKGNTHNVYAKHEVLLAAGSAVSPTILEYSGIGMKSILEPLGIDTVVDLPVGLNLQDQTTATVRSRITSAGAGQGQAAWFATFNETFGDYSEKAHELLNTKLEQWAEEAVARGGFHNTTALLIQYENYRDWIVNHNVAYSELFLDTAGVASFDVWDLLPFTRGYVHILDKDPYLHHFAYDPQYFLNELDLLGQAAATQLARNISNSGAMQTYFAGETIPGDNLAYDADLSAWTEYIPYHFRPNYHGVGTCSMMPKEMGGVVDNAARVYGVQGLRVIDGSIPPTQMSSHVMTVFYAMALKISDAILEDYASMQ

With `c1ccc(SSc2ccccc2)cc1` [(4)2] the solubility [1] was ≤ 2000 µM, the Emmsion average (glucose oxidase (GOx); [(4)2] 40 μM) was 2487781 and the “Normalized Fluorescence” value (glucose oxidase (GOx); [(4)2] 40 μM) was 0.09492. For the same compound, the Emmsion average (glucose oxidase (GOx); [(4)2] 80 μM) was 2153387, the “Normalized Fluorescence” value (glucose oxidase (GOx); [(4)2] 80 μM) was 0.2166 and the Emmsion average (glucose oxidase (GOx); [(4)2] 400 μM) was 1756334. For the same compound, the “Normalized Fluorescence” value (glucose oxidase (GOx); [(4)2] 400 μM) was 0.361, the Emmsion average (glucose oxidase (GOx); [(4)2] 2000 μM) was 1449655 and the “Normalized Fluorescence” value (glucose oxidase (GOx); [(4)2] 2000 μM) was 0.4726. The Emmsion average (glucose oxidase (GOx); [(4)2] 4000 μM) was 1064446, the “Normalized Fluorescence” value (glucose oxidase (GOx); [(4)2] 4000 μM) was 0.6127 and the Emmsion average (glucose oxidase (GOx); [(4)2] 8000 μM) was 516610. The “Normalized Fluorescence” value (glucose oxidase (GOx); [(4)2] 8000 μM) was 0.8121, the Emmsion average (glucose oxidase (GOx); [(4)2] 16000 μM) was 236911 and the “Normalized Fluorescence” value (glucose oxidase (GOx); [(4)2] 16000 μM) was 0.9138. For the same compound, the Kd (glucose oxidase (GOx); apparent dissociation constant, GOx 0.8 µM, Tris pH 7.8, 5% DMSO, 10 °C, read-out: Kd') was 110 ± 10 µM, the “Normalized Change of RPA (NC)” value ([2]; 0% Secox) was -0,49 and the “Normalized Change of RPA (NC)” value ([2]; 5% Secox) was -0,50.
